Assay results as given in patent US9708325B2, “Sulfonimidoylpurinone compounds and derivatives for the treatment and prophylaxis of virus infection” (Hoffmann-La Roche Inc., priority 2015, dated 2017).
In brackets after ≈: the same amount, converted by molar mass. Like-named read-outs stand apart in the source and are kept apart here.

Legend:
[1] = LYSA solubility; type: physicochemical; settings: 0.05 M phosphate buffer, pH 6.5, aqueous buffer, thermodynamic from solid
Method: LYSA solubility assay is used to determine the aqueous solubility of a compound. Samples were prepared in duplicate from 10 mM DMSO stock solution. […] After one night, the solutions were filtered using a microtiter filter plate. Then the filtrate and its 1/10 dilution were analyzed by HPLC-UV.

[2] = molecular target: human TLR7 (Homo sapiens (Human), UniProt Q9NYK1); test: HEK-Blue-hTLR7 cells assay (SEAP reporter); type: cell-based; settings: 20 hrs, read-out: HEK-Blue-hTLR7 (EC50 (μM))
In short: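 HEK-Blue cells stably carrying human TLR7 and an NF-κB-driven SEAP reporter, preincubated 24 h, then exposed to serially diluted compound (1% DMSO final) for 20 h at 37 °C. Supernatant SEAP measured with QUANTI-Blue substrate, 2 h at 37 °C, absorbance read at 620–655 nm.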

[3] = tested on: CYP3A4; test: Cytochrome P450 induction screening assay, mRNA induction in human cryopreserved hepatocytes; type: in vitro ADME; settings: 24 hours exposure
From the text: Induction of cytochrome P450 enzymes is associated with an increased prevalence of clinical drug-drug interactions. The clinical consequences of induction may be therapeutic failure caused by a decreased systemic exposure of the drug itself or a co-administered therapy, or toxicity as a result of increased bioactivation. Cytochrome P450 (CYP450) induction assay has been used to understand the potential drug-drug interaction liabilities in drug discovery stage. Human cryopreserved hepatocytes (Life Technologies, Carlsbad, USA) were thawed and cultured in collagen I coated 96-well plates with a density of 52,000 cells/well. After attachment, hepatocyte maintenance medium (HMM; Lonza, Switzerland) was changed after cells were pre-cultured overnight. […] Medium change was then performed and cells were exposed for 24 hours to test compounds, positive inducer compounds, or vehicle (0.1% DMSO), respectively. At the end of the compound exposure period, medium was removed and cells lysed using 100 μL/well MagNA Pure LC RNA isolation tissue lysis buffer (Roche Diagnostics AG, Rotkreuz, Switzerland). […] mRNA isolation was performed using the MagNA Pure 96 system (Roche Diagnostics AG, Rotkreuz, Switzerland) and the respective cellular RNA large volume kit (Roche Diagnostics AG, Rotkreuz, Switzerland) from thawed samples diluted 1:1 with PBS. […] The resulting cDNA was diluted with 40 μL of H2O before using for qRT-PCR. qRT-PCR was performed by using the forward and the reverse primer, the corresponding Universal Probe Library (all from Microsynth, Balgach, Switzerland) and the Taqman Fast advanced master mix (Applied Biosystems), on an ABI 7900 machine (Applied Biosystems). qRT-PCR Ct-values for the respective P450s were put into relation to the Ct-value of RN18S1 (microsynth, Balgach, Switzerland) of the same sample. Doing so, a respective Δct-value was calculated. Using the average of all Δct-values for the vehicle control samples, a ΔΔct-value was calculated for each sample (ΔΔct-value(sample)=Δct-value(sample)−average of Δct-value of all vehicle controls). […] The individual fold induction values were then averaged per treatment condition (usually n=3 biological replicates).

[4] = molecular target: human TLR8 (Homo sapiens (Human), UniProt Q9NR97); test: HEK-Blue-hTLR8 cells assay and selectivity index; type: cell-based
Method: A stable HEK-Blue-hTLR8 cell line was purchased from InvivoGen (Cat.#: HEK-Blue-htlr8, San Diego, Calif., USA). These cells were designed for studying the stimulation of human TLR8 by monitoring the activation of NF-κB. […] Therefore the reporter expression was regulated by the NF-κB promoter upon stimulation of human TLR8 for 20 hrs. The cell culture supernatant SEAP reporter activity was determined using QUANTI-Blue™ kit (Cat.#: rep-qb1, Invivogen, San Diego, Ca, USA) at a wavelength of 640 nm, a detection medium that turns purple or blue in the presence of alkaline phosphatase.
HEK-Blue-hTLR8 cells were incubated at a density of 250,000˜450,000 cells/mL in a volume of 180 μL in a 96-well plate in Dulbecco's Modified Eagle's medium (DMEM) containing 4.5 g/L glucose, 50 U/mL penicillin, […], […], 2 mM L-glutamine, 10% (V/V) heat-inactivated fetal bovine serum for 24 hrs. Then the HEK-Blue-hTLR8 cells were incubated with addition of 20 μL test compound in a serial dilution in the presence of final DMSO at 1% and perform incubation under 37° C. in a CO2 incubator for 20 hrs. Then 20 μL of the supernatant from each well was incubated with 180 μL Quanti-blue substrate solution at 37° C. for 2 hours and the absorbance was read at 620˜655 nm using a spectrophotometer. The signalling pathway that TLR8 activation leads to downstream NF-κB activation has been widely accepted, and therefore similar reporter assay was also widely used for evaluating TLR8 agonist (Tsuneyasu Kaisho and Takashi Tanaka, Trends in Immunology, Volume 29, Issue 7, July 2008, […]; Hiroaki Hemmi et al, Nature Immunology 3, 196-200 (2002)).
The ratio of TLR8 agonism activity compared to TLR7 agonism activity was defined as the selectivity index (EC50 (TLR8) value/EC50(TLR7) value) and calculated accordingly.

[5] = rat, IV 1 mpk, data from WO2016023511, cited from earlier work
[6] = patients with chronic hepatitis B, phase Ib; cited from earlier work
[7] = Metabolic stability in human liver microsomes
Method: The human microsomal stability assay is used for early assessment of metabolic stability of a test compound in human liver microsomes.
Human liver microsomes (Cat. NO.: 452117, Corning, USA; Cat. NO.: H2610, Xenotech, USA) were preincubated with test compound for 10 minutes at 37° C. in 100 mM potassium phosphate buffer, pH 7.4. The reactions were initiated by adding NADPH regenerating system. The final incubation mixtures contained 1 μM test compound, 0.5 mg/mL liver microsomal protein, 1 mM MgCL2, 1 mM NADP, 1 unit/mL isocitric dehydrogenase and 6 mM isocitric acid in 100 mM potassium phosphate buffer, pH 7.4. After incubation times of 0, 3, 6, 9, 15 and 30 minutes at 37° C., 300 μL of cold ACN (including internal standard) was added to 100 μL incubation mixture to terminate the reaction. Following precipitation and centrifugation, the amount of compound remaining in the samples were determined by LC-MS/MS. Controls of no NADPH regenerating system at zero and 30 minutes were also prepared and analyzed.

Chain of human TLR7 (Q9NYK1 27-1049): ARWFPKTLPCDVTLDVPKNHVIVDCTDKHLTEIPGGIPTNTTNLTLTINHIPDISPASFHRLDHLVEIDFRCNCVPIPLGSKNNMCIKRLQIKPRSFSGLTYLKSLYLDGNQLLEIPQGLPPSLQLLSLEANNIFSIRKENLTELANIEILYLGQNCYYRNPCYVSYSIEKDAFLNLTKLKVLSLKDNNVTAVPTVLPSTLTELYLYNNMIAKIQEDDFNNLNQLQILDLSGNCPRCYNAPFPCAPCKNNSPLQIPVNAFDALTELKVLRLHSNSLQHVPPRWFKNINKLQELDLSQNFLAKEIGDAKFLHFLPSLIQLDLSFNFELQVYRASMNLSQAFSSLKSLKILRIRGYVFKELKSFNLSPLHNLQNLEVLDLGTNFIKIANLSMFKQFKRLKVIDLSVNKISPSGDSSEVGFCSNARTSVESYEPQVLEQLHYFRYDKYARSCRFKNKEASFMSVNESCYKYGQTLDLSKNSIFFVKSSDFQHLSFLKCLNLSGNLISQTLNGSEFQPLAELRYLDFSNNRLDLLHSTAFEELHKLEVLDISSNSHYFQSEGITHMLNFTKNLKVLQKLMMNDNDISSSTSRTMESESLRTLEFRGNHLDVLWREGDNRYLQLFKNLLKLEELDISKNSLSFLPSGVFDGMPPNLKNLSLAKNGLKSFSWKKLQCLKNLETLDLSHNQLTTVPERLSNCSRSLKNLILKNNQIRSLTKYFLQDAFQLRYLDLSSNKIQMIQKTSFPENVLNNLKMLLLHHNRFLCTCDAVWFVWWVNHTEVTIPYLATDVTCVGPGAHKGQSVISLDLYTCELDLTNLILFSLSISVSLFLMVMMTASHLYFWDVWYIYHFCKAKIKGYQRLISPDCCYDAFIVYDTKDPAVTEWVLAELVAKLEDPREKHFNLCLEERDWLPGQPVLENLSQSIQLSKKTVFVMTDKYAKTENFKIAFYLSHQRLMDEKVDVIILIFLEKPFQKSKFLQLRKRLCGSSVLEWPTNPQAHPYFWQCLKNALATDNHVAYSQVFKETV
Chain of human TLR8 (Q9NR97 27-1041): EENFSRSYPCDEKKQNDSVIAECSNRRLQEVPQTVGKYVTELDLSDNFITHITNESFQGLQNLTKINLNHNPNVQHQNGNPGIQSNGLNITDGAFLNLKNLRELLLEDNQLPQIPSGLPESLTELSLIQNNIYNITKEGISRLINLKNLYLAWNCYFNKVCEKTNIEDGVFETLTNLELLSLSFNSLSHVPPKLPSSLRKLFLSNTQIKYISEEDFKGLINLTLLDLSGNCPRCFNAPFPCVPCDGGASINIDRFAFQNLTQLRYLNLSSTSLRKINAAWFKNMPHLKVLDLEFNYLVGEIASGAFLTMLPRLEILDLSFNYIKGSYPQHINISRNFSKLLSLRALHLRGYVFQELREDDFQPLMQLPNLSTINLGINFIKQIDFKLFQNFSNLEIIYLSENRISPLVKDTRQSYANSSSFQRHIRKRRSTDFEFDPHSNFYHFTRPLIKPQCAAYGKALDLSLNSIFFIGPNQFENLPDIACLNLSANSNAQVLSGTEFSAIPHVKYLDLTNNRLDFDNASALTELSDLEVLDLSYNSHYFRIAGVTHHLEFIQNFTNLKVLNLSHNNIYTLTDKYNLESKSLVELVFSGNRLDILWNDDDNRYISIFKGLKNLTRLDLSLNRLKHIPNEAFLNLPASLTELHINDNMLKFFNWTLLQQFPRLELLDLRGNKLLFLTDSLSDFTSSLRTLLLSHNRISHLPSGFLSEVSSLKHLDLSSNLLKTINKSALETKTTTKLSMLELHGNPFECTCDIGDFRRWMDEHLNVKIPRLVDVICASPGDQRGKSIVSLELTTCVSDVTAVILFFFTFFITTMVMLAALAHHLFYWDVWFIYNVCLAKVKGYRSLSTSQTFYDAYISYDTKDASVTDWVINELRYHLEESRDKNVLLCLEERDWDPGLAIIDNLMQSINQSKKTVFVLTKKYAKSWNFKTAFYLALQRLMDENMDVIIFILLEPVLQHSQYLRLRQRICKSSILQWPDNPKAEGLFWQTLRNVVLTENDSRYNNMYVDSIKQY

solubility thermodynamic [1] [µg/mL]	Relative induction of Positive control (10 μM Rifampicin) (%) [3] [%]	SMILES	EC50 [2] [µM]	EC50 [4] [nM]	Selective index ([4]; EC50(TLR8) value/EC50(TLR7) value)	Mean plasma concentration ([5]; 0.083 h) [nM]	Mean plasma concentration ([5]; 0.25 h) [nM]	Mean plasma concentration ([5]; 0.5 h) [nM]	Mean plasma concentration ([5]; 1 h) [nM]	Mean plasma concentration ([5]; 2 h) [nM]	Mean plasma concentration ([5]; 4 h) [nM]	Mean plasma concentration ([5]; 8 h) [nM]	CO [5] [nM]	ISG15 mRNA induction [6]	Safety and tolerability [6]	Human Liver Microsome Clearance ([7]; 1 μM test compound, 0.5 mg/mL microsomal protein, 6.15 mL/min/kg is the limitation of assay sensitivity) [mL/min/kg]	Human liver microsome clearance category ([7]; categorized low/medium/high)
12 (≈ 32.9 µM)	−0.72	CCCS(=N)(=O)c1nc(N)c2[nH]c(=O)n(Cc3ccc(F)cc3)c2n1 (stereo not drawn) [Example 24, 6-Amino-9-[(4-fluorophenyl)methyl]-2-(propylsulfonimidoyl)-7H-purin-8-one]	0.037	–	–	–	–	–	–	–	–	–	–	–	–	–	–
–	–	CCCCOc1nc(N)c2c(n1)N(Cc1cccc(CN3CCCC3)c1)CC(=O)N2 [GS-9620]	0.8	11600	14	170	102	65.4	48.1	21.6	13	4.17	220	dose-dependent ISG15 mRNA induction	safe, well tolerated	17.8	high (high (16.2-23.2 mL/min/kg))
